US20040072770A1, “Methods for specifically inhibiting histone deacetylase-7 and 8” (priority 2002, published 2004)

System: prostate carcinoma cells Du145 tumors
Test: Tumor growth in a mouse model, Du145
Format: in vivo
Conditions: (60,I): 60 mg/kg body weight/day, intraperitoneal; BALB/c nude mice; vs vehicle-treated
Method: Female BALB/c nude mice are obtained from Charles River Laboratories (Charles River, N.Y.) and used at age 8-10 weeks. Human tumor cells (2×10^6, colon carcinoma cells HCT116 or SW48, lung carcinoma cells A549, pancreatic carcinoma Panc-1, ovarian carcinoma cells ES2, or prostate carcinoma cells Du145) are injected subcutaneously in the animal's flank and allowed to form solid tumors. Tumor fragments are serially passaged a minimum of three times, then approximately 30 mg tumor fragments are implanted subcutaneously through a small surgical incision under general anaesthesia. Small molecule inhibitor administration by intraperotineal or oral administration was initiated when the tumors reached a volume of 100 mm^3. For intraperotineal administration, small molecule inhibitors of HDAC-7, HDAC-8 or both, or in combination with small molecule inhibitors of HDAC-1 (20-60 mg/kg body weight/day) are dissolved in 100% DMSO and administered daily by injection. For oral administration, small molecule inhibitors of HDAC (60 mg/kg body weight) are dissolved in saline acidified with 0.2 N HCl. Tumor volumes are monitored twice weekly up to 20 days. Each experimental group contains at least 6-8 animals. Percentage inhibition is calculated using volume of tumor from vehicle-treated mice as controls. […]

COc1ccc(NCc2ccc(C(=O)Nc3ccccc3N)cc2)cc1OC [Compound 17, N-(2-Aminophenyl)-4-[(3,4-dimethoxyphenylamino)-methyl]-benzamide]
% of Inhibition of Tumor Growth in Vivo DU 145: >50(60,I) %
